Data taken from article PMC4113456, “Atypical Signaling and Functional Desensitization Response of MAS Receptor to Peptide Ligands” (PLoS ONE, 2014).
Numbering of substitutions follows the chain as printed.

What was measured:
Format in all cases: cell-based
[1] = molecular target: T1, untagged WT MAS (Homo sapiens, UniProt P04201); test: Calcium assay, untagged WT MAS inducible HEK293 stable cell line
T1 construct: expressed in transfected cells
T1 sequence (P04201 1-325): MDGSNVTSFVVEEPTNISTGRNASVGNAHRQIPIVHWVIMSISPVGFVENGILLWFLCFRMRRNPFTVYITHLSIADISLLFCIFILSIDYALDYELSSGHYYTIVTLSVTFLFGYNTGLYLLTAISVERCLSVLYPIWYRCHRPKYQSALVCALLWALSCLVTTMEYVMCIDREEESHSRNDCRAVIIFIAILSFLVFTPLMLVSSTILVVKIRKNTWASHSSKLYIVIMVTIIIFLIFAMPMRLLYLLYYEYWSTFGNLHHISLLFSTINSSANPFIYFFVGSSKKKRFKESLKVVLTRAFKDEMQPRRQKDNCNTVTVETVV
Procedure: The assay was performed using FLIPR Calcium 5 assay kit (Molecular Devices, Sunnyvale, CA). For calcium measurements, cells at a density of 125,000 cells/well in 100 µl medium were seeded onto a 96-well clear bottom black cell culture plate that was pre-coated with poly-L-lysine. In the calcium assays the cell density of 125,000 cells/well was consistently maintained to minimize variability between independent experiments. The cells were seeded in induction media to induce MAS expression or in complete media for negative controls. The plate was maintained in a cell culture incubator for 26–28 h. The cells were then serum starved for 2 h by replacing the medium with 100 µl of serum free DMEM. In the case of pre-treatment with pan-inhibitor of G protein signaling, BIM-46187, the cells were initially serum starved for 1 h by replacing the medium with 50 µl of serum free DMEM. After 1 h, 50 µl of BIM-46187 was added to the cells to a final concentration of 25 µM and treated for another 1 h. Following serum starvation, 100 µl of calcium sensitive dye along with 2x (2.5 mM final concentration) probenecid (Life Technologies, Grand Island, NY) was added to the cells. During this step, AR-inverse agonist or BIM-46187 was also added at desired concentrations to the calcium dye preparation in case of experiments where cells were pre-treated with these inhibitors. The cells were maintained for one hour in the cell culture incubator. Following this, the 96-well plate containing cells loaded with calcium dye and a U-bottom 96-well plate containing ligands at 5x the desired final concentration in D-PBS (1.47 mM KH2PO4, 138 mM NaCl, 2.67 mM KCl, 8.1 mM Na2HPO4, pH 7.3) were allowed to equilibrate for 15 min on a FlexStation 3 instrument (Molecular Devices, Sunnyvale, CA) at 37°C. The plates were further equilibrated on the instrument for 5 min with the lids removed from the plates. The instrument was programmed in FLEX mode to add ligands (50 µl at 5x concentration) to the cells and to monitor the fluorescence before and after adding the ligands. […]

[2] = molecular target: T2, MAS (Homo sapiens, UniProt P04201); test: FLIPR calcium assay, induced myc-tagged WT MAS HEK293 stable cell line
T2 construct: expressed in transfected cells
T2 sequence (P04201 1-325): T1 sequence (P04201 1-325)
Procedure: The assay was performed using FLIPR Calcium 5 assay kit (Molecular Devices, Sunnyvale, CA). For calcium measurements, cells at a density of 125,000 cells/well in 100 µl medium were seeded onto a 96-well clear bottom black cell culture plate that was pre-coated with poly-L-lysine. In the calcium assays the cell density of 125,000 cells/well was consistently maintained to minimize variability between independent experiments. The cells were seeded in induction media to induce MAS expression or in complete media for negative controls. The plate was maintained in a cell culture incubator for 26–28 h. The cells were then serum starved for 2 h by replacing the medium with 100 µl of serum free DMEM. In the case of pre-treatment with pan-inhibitor of G protein signaling, BIM-46187, the cells were initially serum starved for 1 h by replacing the medium with 50 µl of serum free DMEM. After 1 h, 50 µl of BIM-46187 was added to the cells to a final concentration of 25 µM and treated for another 1 h. Following serum starvation, 100 µl of calcium sensitive dye along with 2x (2.5 mM final concentration) probenecid (Life Technologies, Grand Island, NY) was added to the cells. During this step, AR-inverse agonist or BIM-46187 was also added at desired concentrations to the calcium dye preparation in case of experiments where cells were pre-treated with these inhibitors. The cells were maintained for one hour in the cell culture incubator. Following this, the 96-well plate containing cells loaded with calcium dye and a U-bottom 96-well plate containing ligands at 5x the desired final concentration in D-PBS (1.47 mM KH2PO4, 138 mM NaCl, 2.67 mM KCl, 8.1 mM Na2HPO4, pH 7.3) were allowed to equilibrate for 15 min on a FlexStation 3 instrument (Molecular Devices, Sunnyvale, CA) at 37°C. The plates were further equilibrated on the instrument for 5 min with the lids removed from the plates. The instrument was programmed in FLEX mode to add ligands (50 µl at 5x concentration) to the cells and to monitor the fluorescence before and after adding the ligands. In re-stimulation and antagonism assays the instrument is programmed to add 35 µl of first ligand followed by addition of the second ligand (35 µl) after 10 min. […] Therefore, when using 5x ligand stock the maximum AR-agonist concentration that could be tested was 10 µM.
In the calcium assays, the maximum response and minimum response values in relative fluorescence units (RFU) were extracted by subtracting the corresponding baseline value wherein baseline is defined as the average fluorescence of all time points before addition of ligand.
The kinetic parameter t1/2 (time taken to reach half of the maximum response) was determined using SoftMax Pro software supplied with the FlexStation 3 instrument (Molecular Devices, Sunnyvale, CA).
For re-stimulation assays, the data is expressed as the percentage of maximum agonist stimulation to allow for ready comparison between individual experiments. […] For all the assays, the EC50 and IC50 values were estimated by fitting the data to a three parameter dose response using GraphPad Prism software (GraphPad, La Jolla, CA).

[3] = molecular target: T3, MAS M244A mutant (Homo sapiens, UniProt P04201, M244A); test: IP1 assay, M244A MAS mutant stable cell line
T3 construct: expressed in transfected cells
T3 sequence (P04201 1-325 M244A): T1 sequence (P04201 1-325) with M244A
From the text: The WT MAS expression construct was synthesized with an N-terminal myc-tag (Figure 1) by GenScript (Piscataway, NJ). The myc-tagged WT MAS from this vector was initially sub-cloned into pcDNA3.1 and later sub-cloned into tetracycline/doxycycline inducible vector pcDNA 5/TO (Life Technologies, Grand Island, NY). Four different ligand binding MAS mutants (F112A, I191A, M244A and T270A) were created using site-directed mutagenesis of WT myc-tagged MAS in pcDNA3.1 or pcDNA 5/TO vector background (Agilent Technologies, Santa Clara, CA). […]
IP1 levels in the cells were measured using the IP-One Tb kit (Cisbio US, Bedford, MA). […] Time-resolved ratiometric fluorescence emission measurements at 665 nm and 620 nm were taken after excitation at 343 nm on FlexStation 3 instrument. […]
For re-stimulation assays, the data is expressed as the percentage of maximum agonist stimulation to allow for ready comparison between individual experiments. For the IP1 assay, a standard curve was generated using the 4-Parameter logistic equation fit of the HTRF readings of IP1 standards using the SoftMax Pro software. […] In the luciferase assay, the luminescence measurements (RLU) are presented as a ratio of firefly to renilla luciferase activity. […]

COc1cc([N+](=O)[O-])ccc1S(=O)(=O)N1CC(CN2CCN(c3ccccn3)CC2)C(c2cccc(F)c2)C1 (centres unmarked) [AR-agonist]
EC50 ([1]; read-out: EC50, calcium flux): 1200 ± 100 nM | t1/2 (time taken to reach half of the maximal calcium response), Calcium assay ([2]; WT MAS): 31.2 ± 2.1 s | EC50 ([2]; WT MAS, induced cells): 1500 ± 300 nM | Fold over WT, EC50 Calcium assay ([2]; WT construct): 1 | EC50, IP1 assay [3]: cbd

C=CCCN1CCC2(CC1)CN(C(=O)c1c(F)cccc1F)c1ccc(Cl)cc12 [AR-inverse]
IC50 ([1]; read-out: IC50, calcium flux): 500 ± 400 nM | IC50 ([2]; WT MAS, induced cells, inhibition of constitutive activity): 900 ± 600 nM | IC50, IP1 assay [3]: cbd
